According to patent US6844182B2, “Mutants which produce a potentiator of bacillus pesticidal activity” (priority 1992, dated 2005):
Read-outs that look alike come from different tables or passages of the source.

How the values were obtained:
[1] = test system: Spodoptera exigua; assay type: in vivo; design: key to Stunt Score: 4.0 = untreated control; 3.0 = 75% size of untreated control; 2.0 = 50% size of untreated control; 1.0 = 25% size of untreated control; 0.0 = no growth or size unchanged from start of experiment
Experimental: Activity is monitored by a Spodoptera exigua micro-bioassay, and purity is determined by capillary electrophoresis. […] The trays containing the various samples are air dried. Two to four 2nd or early 3rd instar Spodoptera exigua are added to the wells containing the dried sample. The wells are sealed with mylar poked with holes and are incubated for 2-3 days at 30° C. Degree of stunting and percent mortality are then recorded. Typically, 5 replicate wells are run for each sample.

[2] = Stability of Ia (retention of activity); assay type: physicochemical
Experimental: Further, it is stable when subjected to direct sunlight for at least 10 hours. Ia is stable at a pH 2 for 3 days, but unstable at pH 12.

[3] = Solubility of Ia; assay type: physicochemical
Description: The active compound is found to be water soluble but is not soluble in organic solvents. […] A DEPT experiment determined that there are three quaternary carbons (C), seven methines (CH), three methylenes (CH2) and no methyl groups (CH3). Using proton coupling experiments such as 1-D decoupling and COSY, one large spin system containing eight carbons is identified. In addition, a smaller spin system consisting of two carbons is present. A carbon proton correlation experiment (HMBC) enabled assignment of each proton resonance in the molecule to its attached carbon.

[4] = test system: Septoria nodorum; assay: Fungal growth inhibition assay, Septoria nodorum; assay type: cell-based
Experimental: (§1) Mutants of the Bacillus thuringiensis subsp. kurstaki strain which produce the factor are identified using fungal agar plates of Septoria nodorum and Alternaria alternata.
(§2) The two fungi are grown on PDA (potato dextrose agar) plates at 26° C. for 10-14 days until sufficient sporulation is obtained. Alternaria alternata is incubated in alternating UV light and darkness (12 hrs. each). The spores are removed from the plates and suspended in sterile water. Septoria nodorum spores are filtered through a sterile G1 filter. The Alternaria alternata spore concentration is adjusted to approximately 2×10^5 per ml and the Septoria nodorum spore concentration is adjusted to approximately 2×10^6 per ml using a Burker-Turk or Fuchs-Rosenthal counter. Samples of 1.5 ml of the spore suspension are then mixed with 1.5 ml of sterile 40% glycerol in water, frozen for 1 day at −20° C. and thereafter stored at −80° C. until use.
(§3) Test plates for the factor are prepared by mixing at 46° C. a 1.5 ml spore sample (as described above) with 115 ml of antibiotic agar medium No. 2 (25.5 g per liter) comprising streptomycin at a final concentration of 100 μg per ml, and transferring the mixture to sterile plastic trays (Nunc No. 101875). After the agar has solidified, […] holes are punched into the agar (120 holes per tray).
(§4) Samples of a culture are serially diluted in 100 μg of streptomycn per ml of sterile water and 10 μl of the diluted samples are dispensed into the trays prepared as described above. The trays are incubated at 26° C. for 2 days. Dilutions of the factor are also run as a positive control.
(§5) The sensitivity of the fungal growth inhibition assay is in the range of 0.05 gram of the factor per liter (barely visible) and 0.1 gram of the factor per liter (clear zone) for both fungi.

[5] = test system: Alternaria alternata; assay: Fungal growth inhibition assay, Alternaria alternata; assay type: cell-based
Experimental: as §1, §2, §3, §4, §5

[6] = test system: Phytophthora medicaginis; conditions: U.S. Pat. Nos. 4,877,738 and 4,878,936; cited from earlier work

For `NC(=O)NCC(NC(=O)C(O)C(O)C(N)C(O)CC(O)C(N)CO)C(N)=O` (stereo not shown) [Ia], the “Stunt Score” value ([1]; Ia + alone, Bt protein None) was 4.0, the “effect on activity of B.t. subsp. kurstaki and aizawai crystal delta-endotoxin pesticidal proteins toward Spodoptera exigua” value ([1]; regardless of the form of the pesticidal proteins) was “potentiate” and the stability upon autoclaving ([2]; autoclaving (>190° C.)) was “loses all activity”. For the same molecule, the stability upon boiling ([2]; boiling for 5 minutes) was “stable”, the “time stable in direct sunlight” value ([2]; direct sunlight) was “at least 10 hours” and the “stability to periodic acid or concentrated HCl” value ([2]; exposed to periodic acid or concentrated HCl) was “lose all activity”. The “stability at pH 2” value ([2]; pH 2 for 3 days) was “stable”, the “stability at pH 12” value ([2]; pH 12) was “unstable” and the “solubility in organic solvents” value ([3]; organic solvents) was “not soluble”. For the same molecule, the solubility in water ([3]; water) was “water soluble”, the “effect on fungal growth” value ([4]; agar plates) was “inhibits growth” and the “concentration giving barely visible inhibition (assay sensitivity)” value ([4]; barely visible, 26° C., 2 days) was 0.05 gram of the factor per liter. The “concentration giving clear zone (assay sensitivity)” value ([4]; clear zone, 26° C., 2 days) was 0.1 gram of the factor per liter, the “effect on fungal growth” value ([5]; agar plates) was “inhibits growth” and the “concentration giving barely visible inhibition (assay sensitivity)” value ([5]; barely visible, 26° C., 2 days) was 0.05 gram of the factor per liter. The “concentration giving clear zone (assay sensitivity)” value ([5]; clear zone, 26° C., 2 days) was 0.1 gram of the factor per liter.

In the case of `NC(=O)NCC(NC(=O)C(O)C(O)C(N)C(O)CC(O)C(N)CO)C(N)=O` (stereo not shown) [zwittermicin A], the “effect on growth of the plant pathogen Phytophthora medicaginis” value [6] is listed as “inhibits the growth” and the “effect on infection of alfalfa” value [6] is listed as “reduces the infection”.

In the case of “CryIA(c): Bacillus thuringiensis CryIA(c) delta-endotoxin protein purified from BIOBIT FC”, the “Stunt Score” value ([1]; Bt protein 3 μg/ml, Ia +) is reported as 1.0 (1.0 = 25% size of untreated control), the “Stunt Score” value ([1]; Bt protein 15 μg/ml, Ia +) is reported as 0.0 and the “Stunt Score” value ([1]; Bt protein 30 μg/ml, Ia −) is reported as 4.0. For the same molecule, the “concentration with Ia producing the same insect mortality/stunt score as protein alone” value ([1]; full-length protein, equals 240 μg/ml of CryIA(c) alone) was 0.75 µg/mL, the “Stunt Score” value ([1]; purified truncated Bt protein OD280 0.0006, Ia +) was 1.0 (1.0 = 25% size of untreated control) and the “Stunt Score” value ([1]; purified truncated Bt protein OD280 0.0012, Ia +) was 1.0 (1.0 = 25% size of untreated control). For the same molecule, the “Stunt Score” value ([1]; purified truncated Bt protein OD280 0.0025, Ia +) was 2.0 (2.0 = 50% size of untreated control), the “Stunt Score” value ([1]; purified truncated Bt protein OD280 0.005, Ia +) was 0.0 and the “Stunt Score” value ([1]; purified truncated Bt protein OD280 0.020, Ia +) was 0.0. The “OD280 in combination with Ia giving the same stunt score as protein alone” value ([1]; truncated protein, equals OD280 of 0.075 tested alone) was 0.0006 OD280.
